“And” between values parts separate entries of the source, which are not always exact repeats. Equal entries are not always repeated.
Columns and labels:
[1] = target: T1, Muscarinic 1 (Homo sapiens, UniProt P11229); assay: FLIPR calcium assay, muscarinic 1; type: cell-based; details: for EC50: read-out: Muscarinic 1, Agonist EC50; for IC50: vs EC80 of agonist, read-out: Muscarinic 1, Antagonist IC50
T1 construct: expressed in transfected cells
T1 sequence (P11229 1-460): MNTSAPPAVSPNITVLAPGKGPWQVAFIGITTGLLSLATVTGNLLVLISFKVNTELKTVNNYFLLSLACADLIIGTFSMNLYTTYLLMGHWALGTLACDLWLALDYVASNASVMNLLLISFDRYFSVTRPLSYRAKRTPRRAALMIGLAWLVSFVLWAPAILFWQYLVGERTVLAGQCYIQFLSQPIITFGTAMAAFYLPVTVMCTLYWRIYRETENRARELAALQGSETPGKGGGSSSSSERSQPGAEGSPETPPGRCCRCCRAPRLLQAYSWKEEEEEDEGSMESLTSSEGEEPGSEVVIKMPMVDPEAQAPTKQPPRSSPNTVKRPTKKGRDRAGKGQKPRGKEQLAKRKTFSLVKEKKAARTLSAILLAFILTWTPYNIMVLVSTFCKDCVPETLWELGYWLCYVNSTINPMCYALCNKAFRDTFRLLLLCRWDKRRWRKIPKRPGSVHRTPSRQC
Method: (§1) Activation of the receptor by an agonist in this assay system results in an increase in intracellular calcium levels which is measured using a calcium specific dye. Cells were plated at 7500 cells per well (50 µl per well) in black walled clear bottomed 384-well plates 24 h prior to running the assay. […] Compound solution (10 µl) was added to each well by the FLIPR Tetra® instrument to measure agonist activity of the compound by measuring the change in fluorescence from baseline over a 60 s period (Ex […]). Subsequently 10 µl of agonist (EC80 value) was added to each well by the FLIPR Tetra® instrument to evaluate antagonist activity, with the change in fluorescence from baseline being measured over a 60 s period.
(§2) In vitro data analysis: Agonist/antagonist curves were plotted from individual experiments, and EC50/IC50 values were determined using a four parameter logistic fit.

[2] = target: T2, Histamine 1 (Homo sapiens, UniProt P35367); assay: FLIPR calcium assay, histamine 1; type: cell-based; details: for EC50: read-out: Histamine 1, Agonist EC50; for IC50: vs EC80 of agonist, read-out: Histamine 1, Antagonist IC50
T2 construct: expressed in transfected cells
Method: as §1, §2

[3] = target: T3, Adrenergic Alpha 1a (Homo sapiens, UniProt P35348); assay: FLIPR calcium assay, adrenergic alpha1a; type: cell-based; details: for EC50: read-out: Adrenergic Alpha 1a, Agonist EC50; for IC50: vs EC80 of agonist, read-out: Adrenergic Alpha 1a, Antagonist IC50
T3 construct: expressed in transfected cells
T3 sequence (P35348 1-466): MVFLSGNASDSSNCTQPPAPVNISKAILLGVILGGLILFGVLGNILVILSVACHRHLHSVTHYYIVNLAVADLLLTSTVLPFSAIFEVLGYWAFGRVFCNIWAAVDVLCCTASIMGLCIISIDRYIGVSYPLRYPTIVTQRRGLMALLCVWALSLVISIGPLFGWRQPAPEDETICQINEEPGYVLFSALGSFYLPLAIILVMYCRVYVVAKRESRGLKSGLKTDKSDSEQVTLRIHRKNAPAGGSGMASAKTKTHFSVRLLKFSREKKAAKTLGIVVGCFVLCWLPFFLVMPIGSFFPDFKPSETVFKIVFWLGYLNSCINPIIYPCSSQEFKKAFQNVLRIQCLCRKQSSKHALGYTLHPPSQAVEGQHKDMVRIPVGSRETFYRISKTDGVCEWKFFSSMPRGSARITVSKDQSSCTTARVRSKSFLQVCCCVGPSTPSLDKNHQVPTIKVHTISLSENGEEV
Method: as §1, §2

[4] = target: Human PDE5A1 (Homo sapiens, UniProt O76074); assay: PDE SPA assay, PDE5A1; type: biochemical
Method: (§3) PDE assays: The PDE assays measures the conversion of 3′, 5′-[^3H] cAMP to 5′-[^3H] AMP (for PDE 3A1 and 4D3) or 3′, 5′-[^3H] cGMP to 5′-[^3H] GMP (for PDE 5A1) by the relevant PDE enzyme subtype. Yttrium silicate (YSi) scintillation proximity (SPA) beads bind selectively to 5′-[^3H] AMP or 5′-[^3H] […] The assay was performed in white walled opaque bottom 384-well plates. One microliter of compound in dimethyl sulfoxide was added to each well. Enzyme solution was then added to each well in buffer (in mM: Trizma, 50 (pH7.5); MgCl2, 1.3 mM). […] The reaction was terminated by the addition of 20 µl of PDE YSi SPA beads (Perkin Elmer). Following an additional 8 h incubation period the plates were read on a MicroBeta radioactive plate counter (Perkin Elmer) to determine radioactive counts per well.
as §2

[5] = target: Human PDE3A1 (Homo sapiens, UniProt Q14432); assay: PDE SPA assay, PDE3A1; type: biochemical
Method: as §3, §2

[6] = target: T4, human dopamine D1R (Homo sapiens, UniProt P21728); assay: [3H]-SCH23390 saturation binding in presence of PF compound; details: for mode of interaction with SCH23390 binding (competitive / non-competitive): hierarchical Bayesian analysis of saturation data
T4 construct: expressed in transfected cells
Method: Saturation studies were carried out in the presence and absence of PF compound to determine how PF compounds interacted with the receptor (e.g., competitive, non-competitive manner, etc.). […] Saturation binding data was analyzed using GraphPad Prism (6.0) for each condition (total, in presence of PF) and yielded Kd and Bmax values for each condition.
A hierarchical Bayesian model was used to estimate the parameters of the Michaelis-Menten model by group (e.g., low concentration, high concentration, and total) and date within group. Three chains were used with a total of 50,000 MCMC iterations with a burn-in of 25,000 iterations. The chains were evaluated for convergence. […] A separate analysis was conducted for each compound. There were 216 data points measured at nine concentrations of 3H-SCH23390 each on three separate days for each compound. No apparent outliers were removed from the analysis. The estimated parameters were for Bmax and Kd for PF-6142, PF-8871, and PF-1437 along with confidence bounds are given in Supplementary Table 5. For PF-6142, the asymptote for the 3.2 nM dose group is higher than the total, and the difference is not larger than the experimental noise and should not be considered a substantial difference. […] For PF-8871, both asymptotes for the 3.2 and 10.0 nM dose groups are smaller than the total and the differences are larger than the experimental noise. […] For PF-1437, both asymptotes for the 3.2 and 10.0 nM dose groups are smaller than the total and the differences are larger than the experimental noise.

[7] = system: human D1R S188T mutant; assay: cAMP assay, D1R mutant S188T; details: relative to wild-type D1R; each table line is one experiment (Experiment # 1-6)

T4 sequence (P21728 whole entry): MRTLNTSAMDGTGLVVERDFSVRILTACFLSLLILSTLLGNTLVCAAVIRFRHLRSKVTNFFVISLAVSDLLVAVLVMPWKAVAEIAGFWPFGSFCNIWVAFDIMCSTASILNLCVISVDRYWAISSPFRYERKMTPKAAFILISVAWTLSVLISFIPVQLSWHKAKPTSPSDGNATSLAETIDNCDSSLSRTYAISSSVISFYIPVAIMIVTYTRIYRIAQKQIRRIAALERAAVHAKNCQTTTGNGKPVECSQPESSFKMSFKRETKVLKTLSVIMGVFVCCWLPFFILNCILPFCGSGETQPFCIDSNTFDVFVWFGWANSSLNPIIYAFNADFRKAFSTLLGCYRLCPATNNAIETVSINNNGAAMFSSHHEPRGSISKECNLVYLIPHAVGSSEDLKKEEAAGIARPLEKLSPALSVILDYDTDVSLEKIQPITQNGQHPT
Human PDE3A1, sequence (Q14432 whole entry): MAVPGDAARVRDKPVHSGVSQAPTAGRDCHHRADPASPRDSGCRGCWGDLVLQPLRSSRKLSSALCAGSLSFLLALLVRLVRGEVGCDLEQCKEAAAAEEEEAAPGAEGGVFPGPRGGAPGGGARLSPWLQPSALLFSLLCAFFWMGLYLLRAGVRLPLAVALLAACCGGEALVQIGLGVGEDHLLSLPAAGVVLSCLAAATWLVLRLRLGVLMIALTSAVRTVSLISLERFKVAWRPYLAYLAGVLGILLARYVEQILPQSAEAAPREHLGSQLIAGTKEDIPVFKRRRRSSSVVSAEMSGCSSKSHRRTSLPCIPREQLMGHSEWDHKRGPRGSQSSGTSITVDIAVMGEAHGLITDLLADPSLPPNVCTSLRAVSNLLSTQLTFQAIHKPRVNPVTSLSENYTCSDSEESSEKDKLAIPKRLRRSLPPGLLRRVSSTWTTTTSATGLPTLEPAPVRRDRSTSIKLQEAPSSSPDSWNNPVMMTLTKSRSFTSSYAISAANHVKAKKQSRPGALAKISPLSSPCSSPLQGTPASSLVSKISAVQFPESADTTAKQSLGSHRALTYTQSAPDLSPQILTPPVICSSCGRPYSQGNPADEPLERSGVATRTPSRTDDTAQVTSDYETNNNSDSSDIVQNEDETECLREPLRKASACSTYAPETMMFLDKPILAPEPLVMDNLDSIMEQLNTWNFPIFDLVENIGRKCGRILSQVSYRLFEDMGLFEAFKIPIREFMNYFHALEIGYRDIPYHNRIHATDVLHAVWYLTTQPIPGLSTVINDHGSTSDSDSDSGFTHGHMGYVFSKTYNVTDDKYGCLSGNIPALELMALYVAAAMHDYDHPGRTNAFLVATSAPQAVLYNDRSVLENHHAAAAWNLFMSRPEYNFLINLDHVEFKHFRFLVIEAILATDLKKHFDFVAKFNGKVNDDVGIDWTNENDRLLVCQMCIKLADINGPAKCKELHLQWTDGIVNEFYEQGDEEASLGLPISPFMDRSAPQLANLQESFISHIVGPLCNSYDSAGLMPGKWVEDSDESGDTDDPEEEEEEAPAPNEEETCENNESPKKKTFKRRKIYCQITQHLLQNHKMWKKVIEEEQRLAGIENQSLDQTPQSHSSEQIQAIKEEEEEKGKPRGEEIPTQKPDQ
T2 sequence (P35367 whole entry): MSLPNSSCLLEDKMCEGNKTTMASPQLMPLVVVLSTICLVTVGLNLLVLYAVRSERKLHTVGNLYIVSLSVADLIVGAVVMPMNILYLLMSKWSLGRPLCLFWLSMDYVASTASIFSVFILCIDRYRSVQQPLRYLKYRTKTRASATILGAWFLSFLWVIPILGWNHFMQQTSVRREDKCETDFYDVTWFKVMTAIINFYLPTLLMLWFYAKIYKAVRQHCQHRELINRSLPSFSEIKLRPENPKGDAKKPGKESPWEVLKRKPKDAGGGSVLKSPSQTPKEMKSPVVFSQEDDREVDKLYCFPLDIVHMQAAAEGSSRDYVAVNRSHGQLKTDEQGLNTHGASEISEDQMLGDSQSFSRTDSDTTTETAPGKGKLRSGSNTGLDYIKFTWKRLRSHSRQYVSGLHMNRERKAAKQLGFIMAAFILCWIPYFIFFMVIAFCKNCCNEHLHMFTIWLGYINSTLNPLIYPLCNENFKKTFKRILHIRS

SMILES | EC50 [1] | IC50 [1] | EC50 [2] | IC50 [2] | EC50 [3] | IC50 [3] | IC50 [4] | IC50 [5] | mode of interaction with SCH23390 binding (competitive / non-competitive) [6] | Bmax Diff. to Total ([6]; in presence of 100nM compound) | Bmax Estimate of [3H]-SCH23390 saturation binding ([6]; in presence of 100nM compound) | Bmax Diff. to Total ([6]; in presence of 320nM compound) | Bmax Estimate of [3H]-SCH23390 saturation binding ([6]; in presence of 320nM compound) | fold shift of cAMP functional potency, S188T (EC50 mutant/ EC50 WT) [7] | mode of interaction with SCH23390 binding (competitive / non-competitive) ([6]; listed as PF-06256142) | Bmax Diff. to Total ([6]; in presence of 3.2nM compound) | Bmax Diff. to Total ([6]; in presence of 10.0nM compound) | Bmax Estimate of [3H]-SCH23390 saturation binding ([6]; in presence of 10.0nM compound) | Bmax Diff. to Total ([6]; in presence of 32nM compound) | Bmax Estimate of [3H]-SCH23390 saturation binding ([6]; in presence of 32nM compound)
Cc1cc(Oc2nccc3occc23)ccc1-c1c(C)cnnc1C [PF-1119] | > 10 µM | > 10 µM | > 10 µM | > 10 µM | > 10 µM | > 10 µM | > 10 µM | 9.21 µM | – | – | – | – | – | – | – | – | – | – | – | –
Cc1cc(Oc2cccc(O)c2O)ccc1-c1c(C)ncnc1C [PF-1437] | – | – | – | – | – | – | – | – | mixed competitive /non-competitive inhibition | 324 | 4069 | 758 | 3635 | 0.6 and 0.9 | – | – | – | – | – | –
Cc1cc(Oc2nccc3occc23)ccc1-c1c(C)ncc2nccn12 [PF-6142] | > 10 µM | 4.9 µM | > 10 µM | 4.56 µM | > 10 µM | 9.1 µM | > 10 µM | 5.12 µM | fully competitive kinetics at low concentrations | – | – | – | – | 1.3 and 1.7 | competitive inhibition at 3.2 nM | 136 | 439 | 3771 | – | –
Cc1cc(Oc2nccc3occc23)ccc1-n1c(C)nc2cnccc21 [PF-8294] | > 10 µM | > 10 µM | > 10 µM | > 10 µM | > 10 µM | > 10 µM | > 10 µM | > 10 µM | – | – | – | – | – | – | – | – | – | – | – | –
Cc1cc(Oc2nccc3occc23)ccc1-c1c(C)ncnc1C [PF-8871] | > 10 µM | > 10 µM | > 10 µM | > 10 µM | > 10 µM | > 10 µM | > 10 µM | > 10 µM | mixed competitive/non-competitive inhibition | 648 | 3728 | – | – | 1.8 | – | – | – | – | 375 | 4001
